Experimental findings from patent publication EP0009728A1, “Hemostatic and platelet increasing agent containing alpha, beta-diaminopropionic acid and derivatives thereof” (Hokuriku Pharmaceutical Co.,Ltd, priority 1978, dated 1980) are described below.

Series [1] can be described thus: Toxicity / neurotoxic activity (no method described).
For series [2], the system named is Male mice. Put plainly: Hemostatic test (bleeding time after wounding the tail vein). The note with it: for rate of shortening bleeding time (shortened rate): summary in the description; for Bleeding Time (mean±S.E.) After Administration / Shortened Time (mean±S.E.) / Shortened Rate: Table 7; for Bleeding Time (mean±S.E.) After Administration / Shortened Time (mean±S.E.): mean of five tests, dose not stated; for Shortened Rate: shortened time relative to bleeding time before administration. The format is in vivo. The method, then:
The present invention will be described in more detail with reference to the examples below, in which hemostatic test was performed as follows:
Male mice weighing 15 to 20 g. were intraperitoneously given with 0.5 ml. of a Locke solution. The mice-.were holded on a mouse holder 10 minutes after the administration, where the left vein of the tail at the middle of the tail (3 to 4 cm. from the root of the tail) was wounded with a knife to bleed. A filter paper was softly touched with the incised wound at the interval of 30 seconds and observation was made if blood was transferred onto the filter paper. Time until blood was not transferred onto the filter paper was measured and was made a bleeding time for control
Subsequently, a test compound dissolved in 0.5 ml. of a Locke solution was intraperitoneously administered to the same mice. The mice were holded onto a mouse holder 10 minutes after the administration. The right vein at the middle of the tail was wounded with a knife and a bleeding time was measured as in control described above.
A difference in bleeding time between the control and the test compound was made a shortened time for bleed-stopping.

Series [3] deals with platelet. As to the kind of experiment: Platelet-increasing activity (platelet count, Fonio direct method). It is filed as in vivo, mice. The note with it: for increase of the number of platelet versus control: 1 mg/0.5 ml./body i.p., 10 mins. after administration, versus Ringer-Locke control. The procedure:
Platelet-Increasing Activity: • The compound having the formula shown in Example 1 was intraperitoneously administered to ddY female ten(10) mice as one grouping at the dose of 1 mg/0.5 ml./body in the form of a Ringer-Locke solution (1 mg. of the compound was dissolved in a Ringer-Locke solution). One eyeball was isolated 10 mins. after the administration to bleed. Blood was collected and the number of platelet was measured according to a direct method (Fonio original method), details of which are described in Dsch. Z. Schr. Chir., vol. 117, page 176 (1912).
As a control group, a Ringer-Locke solution was intraperitoneously administered at the dose of 0.5 ml/body for comparison.
Activity on Platelet-Increase: • The procedure similar to Example 3 was repeated except that the compound of Example 3 was used instead of the compound of Example 1.

For `N[C@H](CNC(=O)C(=O)O)C(=O)O` [Compound of Example 3, D-N-β-Oxalyl- α, β -diaminopropionic acid], in series [1], the “neurotoxic side effect / neurotoxic activity (in words)” value was “slighter in neurotoxic activity”. In addition, the “rate of shortening bleeding time (shortened rate)” value (“rate of shortening bleeding time” for short) in series [2] was 35%. Besides, the “increase of the number of platelet versus control” value in series [3] (ddY female mice) is approximately 24%. The “Number of Platelet” value in series [3] (Table 6, same procedure as Table 4 (1 mg/0.5 ml./body i.p., ddY female mice)) is 68.0 ± 7.35 10,000/mm^3.

Consider `N[C@@H](CNC(=O)C(=O)O)C(=O)O` [compound of Example 1, L-N-β-oxalyl-α,β-diaminopropionic acid], for which the “neurotoxic side effect / neurotoxic activity (in words)” value in series [1] is listed as “does not exhibit neurotoxic side effect”. Also, in series [2], the “Bleeding Time (mean±S.E.) After Administration” value amounted to 354 ± 45 s, the “Shortened Time (mean±S.E.)” value turned out to be 192 ± 36 s, the “Shortened Rate” value amounted to 35.16% and the “rate of shortening bleeding time” value turned out to be 35%. In addition, the “increase of the number of platelet versus control” value in series [3] (ddY female mice) is on record as “about 30%”. Moreover, the “Number of Platelet” value in series [3] (Table 4, 1 mg/0.5 ml./body i.p. in Ringer-Locke solution, ddY female mice, 10 per group, blood 10 mins. after administration) was 69.6 ± 6.31 10,000/mm^3.

Regarding `NC[C@H](N)C(=O)O` [α,β-diaminopro-pionic acid, L-α, β-diaminopropionic acid], in series [1] (compared with L-N-β-oxalyl-α, β-diaminopropionic acid), the “toxicity relative to that of the oxalyl derivative” value is on record as “about 1/5”. Also, in series [2], the “Bleeding Time (mean±S.E.) After Administration” value was found to be 306 ± 37 s, the “Shortened Time (mean±S.E.)” value is 240±33 p<0.05 second, the “Shortened Rate” value is on record as 43.96% and the “rate of shortening bleeding time” value came out at 44%. Besides, the “increase of the number of platelet as compared to a control” value in series [3] (dose not stated) is “about 17%”.
